Here are results for 14 molecules from PubChem BioAssay AID198 (DTP/NCI, 2004).

Values joined by “and” are separate entries in the source; they are usually repeats but may differ in a detail not shown here. Equal values may be shown once. Toxic doses and inconclusive results are not listed.

The test concerns B16 melanoma ip, C57BL/6 mice, median survival T/C. The test can be described thus: NCI In Vivo Anticancer Drug Screen. Data for tumor model B16 Melanoma (intraperitoneal) in C57BL/6 mice. The conditions noted are these: endpoint: median survival time, higher = longer survival. The procedure: The antitumor activity of compounds was measured in mice bearing transplantable tumors. Survival or tumor size were measured and the results are expressed as the measurement made in the treated group (T) divided by the measurement made in the vehicle treated control group (C). The tumor model used in this assay is B16 Melanoma (intraperitoneal) in C57BL/6 mice

The mark [1] stands for this setting: dose: 12.5 mg/kg/injection, schedule: Q01DX009 (ip), vehicle: saline.
[2] abbreviates: dose: 25.0 mg/kg/injection, schedule: Q01DX009 (ip), vehicle: saline.
Setting [3] is: dose: 50.0 mg/kg/injection, schedule: Q01DX009 (ip), vehicle: saline.
The mark [4] stands for this setting: dose: 100.0 mg/kg/injection, schedule: Q01DX009 (ip), vehicle: saline with Tween-80.
The mark [5] stands for this setting: dose: 100.0 mg/kg/injection, schedule: Q01DX009 (ip), vehicle: saline.
Setting [6] is: dose: 200.0 mg/kg/injection, schedule: Q01DX009 (ip), vehicle: saline with Tween-80.
[7] abbreviates: dose: 200.0 mg/kg/injection, schedule: Q01DX009 (ip), vehicle: saline.
[8] abbreviates: dose: 6.25 mg/kg/injection, schedule: Q01DX009 (ip), vehicle: saline.
The mark [9] stands for this setting: dose: 400.0 mg/kg/injection, schedule: Q01DX009 (ip), vehicle: saline.

`O=C1CN=C(c2ccc[nH]2)c2cc(Cl)ccc2N1`: the T/C under setting [1] is 107 % of control; the T/C (dose: 25.0 mg/kg/injection, schedule: Q01DX009 (ip), vehicle: saline with Tween-80) is 107 % of control; the T/C under setting [2] is 105 % of control; the T/C (dose: 50.0 mg/kg/injection, schedule: Q01DX001 (ip), vehicle: saline) is 100 % of control; the T/C (dose: 50.0 mg/kg/injection, schedule: Q01DX009 (ip), vehicle: saline with Tween-80) was 100 % of control; the T/C under setting [3] is 97 % of control. Further, the T/C by setting is: (dose: 100.0 mg/kg/injection, schedule: Q01DX001 (ip), vehicle: saline) 100 % of control; under setting [4], 103 % of control; under setting [5], 97 % of control; (dose: 200.0 mg/kg/injection, schedule: Q01DX001 (ip), vehicle: saline) 97 % of control; under setting [6], 107 % of control; under setting [7], 112 % of control. For the same molecule, the T/C (dose: 400.0 mg/kg/injection, schedule: Q01DX001 (ip), vehicle: saline) is 102 % of control.
Consider `CN1CCN(CCCN2c3ccccc3Sc3ccc(C(F)(F)F)cc32)CC1`, for which the T/C under setting [2] is 107 % of control.
With `COc1ccc2c3c(c4cc(OC)c(OC)cc4c2c1)C[C@H]1CCCCN1C3`, the T/C (dose: 0.13 mg/kg/injection, schedule: Q01DX009 (ip), vehicle: saline) is 100 % of control; the T/C (dose: 0.25 mg/kg/injection, schedule: Q01DX009 (ip), vehicle: saline) was 100 % of control and 119 % of control; the T/C (dose: 0.5 mg/kg/injection, schedule: Q01DX009 (ip), vehicle: saline) was 113 % of control; the T/C (dose: 1.0 mg/kg/injection, schedule: Q01DX009 (ip), vehicle: saline) is 90 % of control.
On to `S=c1nc[nH]c2nc[nH]c12`, for which the T/C by setting is: (dose: 7.5 mg/kg/injection, schedule: Q01DX009 (ip), vehicle: saline) 93 % of control and 100 % of control; (dose: 15.0 mg/kg/injection, schedule: Q01DX009 (ip), vehicle: saline) 90 % of control and 93 % of control; (dose: 30.0 mg/kg/injection, schedule: Q01DX009 (ip), vehicle: saline) 93 % of control; (dose: 60.0 mg/kg/injection, schedule: Q01DX009 (ip), vehicle: saline) 93 % of control.
In the case of `O=NN(CCCl)C(=O)Nc1ccc(CCCl)cc1`, the T/C by setting is: (dose: 3.13 mg/kg/injection, schedule: Q01DX009 (ip), vehicle: saline) 267 % of control; under setting [8], 217 % of control.
As for `O=C(Nc1ccc(C2=NCCN2)cc1)c1ccc(C(=O)Nc2ccc(C3=NCCN3)cc2)cc1`, the T/C was 100 % of control (dose: 8.0 mg/kg/injection, schedule: Q01DX009 (ip), vehicle: saline); 92 % of control and 109 % of control (dose: 16.0 mg/kg/injection, schedule: Q01DX009 (ip), vehicle: saline); 92 % of control and 106 % of control (dose: 32.0 mg/kg/injection, schedule: Q01DX009 (ip), vehicle: saline); 96 % of control and 106 % of control (dose: 64.0 mg/kg/injection, schedule: Q01DX009 (ip), vehicle: saline).
Regarding `CC(Cc1ccc(O)c(O)c1)C(C)Cc1ccc(O)c(O)c1` (stereo unspecified), the T/C is, setting by setting: under setting [3], 103 % of control; under setting [5], 106 % of control; under setting [7], 113 % of control; under setting [9], 113 % of control.
Regarding `Nc1nc(CCl)nc(Nc2ccccc2)n1`, the T/C reads like this: under setting [4], 96 % of control; under setting [6], 100 % of control.
On to `Cn1c(=O)c2ncnnc2n(C)c1=O`, for which the T/C is 106 % of control under setting [8] and 103 % of control under setting [1].
On to `[N-]=[N+]=CC(=O)NCC(=O)NN`, for which the T/C reads like this: under setting [3], 107 % of control; under setting [5], 110 % of control; under setting [7], 121 % of control; under setting [9], 117 % of control.
In the case of `Nc1ncnc2c1ccn2C1OC(CO)C(O)C1O` (stereo unspecified), the T/C was 93 % of control (dose: 0.32 mg/kg/injection, schedule: Q01DX009 (ip), vehicle: saline); 96 % of control (dose: 0.63 mg/kg/injection, schedule: Q01DX009 (ip), vehicle: saline); 100 % of control (dose: 1.25 mg/kg/injection, schedule: Q01DX009 (ip), vehicle: saline).
Regarding `CC(C)=CCC/C(C)=C/CO`, the T/C is 93 % of control (dose: 15.6 mg/kg/injection, schedule: Q01DX009 (ip), vehicle: saline); 96 % of control (dose: 31.3 mg/kg/injection, schedule: Q01DX009 (ip), vehicle: saline); 86 % of control (dose: 62.5 mg/kg/injection, schedule: Q01DX009 (ip), vehicle: saline); 86 % of control (dose: 125.0 mg/kg/injection, schedule: Q01DX009 (ip), vehicle: saline).
For the molecule `O=c1[nH]cc(N(CCCl)CCCl)c(=O)[nH]1`, the T/C (dose: 1.5 mg/kg/injection, schedule: Q01DX009 (ip), vehicle: saline) is 87 % of control and 106 % of control.
`COc1cc(C[C@H]2c3cc(OC)c(OC)cc3CCN2C)c(Oc2cc3c(cc2OC)-c2c(OC)c(OC)cc4c2[C@H](C3)N(C)CC4)cc1OC`: the T/C is, setting by setting: under setting [2], 96 % of control; under setting [3], 96 % of control; under setting [5], 92 % of control.
